Test results as given in patent US20030130308A1, “Drugs for spinal anesthesia” (priority 2001, published 2003).
Entries after “also recorded” stand apart in the source; their conditions may differ. Where a name gives a salt, the structure may show the parent alone. Marks after values point to notes of the source that are not given here.

Legend:
[1] = system: rats; assay: Placing reflex (cumulative placing score) after intrathecal injection; format: in vivo; conditions: rat; for Cumulative Placing Score: median (range)
Description: (§1) Rats were tested before 15 minutes through 240 minutes after intrathecal injection of 5 nmoles (in 10 μl) of 6-[2-(1(2)H-tetrazole-5-yl)ethyl]decahydroisoquinolone-3-carboxylic acid. Sensory function was tested at the hindpaw using withdrawal response to pinprick and withdrawal to pinch with a sharp forceps. Motor performance (ambulation, the placing reflex and Rotarod time), blood pressure and heart rate was also evaluated. Some tests were repeated the next day. Responses after 6-[2-(1(2)H-tetrazole-5-yl)ethyl]decahydroisoquinolone-3-carboxylic acid were compared to injection of 40 μl of bupivacaine, 0.75%. Pinprick responses at the forepaw, chest, abdomen, hindleg and hindpaw were also examined after intrathecal 6-[2-(1(2)H-tetrazole-5-yl)ethyl]decahydroisoquinolone-3-carboxylic acid.
(§2) Rats were anesthetized with halothane. The lumbar region was shaved, prepared with povidone-iodine, made kyphotic and incised 2 to 3 cm longitudinally in the midline at the level of the iliac crests. The space between the 5th and 6th lumbar vertebrae was punctured with 23G hypodermic needle and a 32G PU catheter (10 cm length, OD 0.0107 inches and ID 0.005 inches) reinforced with a Teflon coated stainless steel stylet (0.003 inches) was advanced through the needle cranially. The needle and the stylet were removed and the catheter withdrawn so that 6.5-7 cm extended outside of the lumbar masculature. The catheter was fixed to the fascia, sutured, inserted into an 8 cm length of PE-10 tubing and secured with glue covered with epoxy. The catheter was tunneled under the skin to the cervical region, flushed with saline and sealed with a cautery pen. The dead space of the catheter was 4.5 to 5 μl. The skin was closed and the rat was allowed to recover from anesthesia for 2-3 days.
(§3) Rats were trained over a two-day period. Training began by placing the rat on a Rotarod (Stoelting, Wood Dale, Ill.) that was fixed for three minutes. Then, three series of trials separated by 2-3 hours were performed. During each trial, the rat was placed on the Rotarod accelerating for the first 20 s then at a constant rate of approximately 5 rpm, until a 180 s cut off time. If the rat fell at any time during the initial trial, the trial was repeated. Each rat was allowed three attempts per trial. On the second day, the same procedure was repeated, though acceleration was sustained for 120 s to approximately 12 rpm, with a 150 second cut off time. On day 3, the test day, rats are again placed on the Rotarod and accelerated for 120 seconds to 12 rpm with the cutoff time of 150 seconds. Each rat was permitted 4 attempts at 15 minute intervals. Those successful in 2 of the 4 attempts continued in the protocol, and the average of the 4 attempts was considered the baseline (pre). After a two-hour period, the test drug was administered and rats were examined once on the Rotarod at 30, 60, 90, 120, 180, and 240 minutes. […] Then the placing reflex was tested. Rats were placed on a table and the dorsum of either hindpaw was drawn across the edge of the table; this elicits a lifting of the paw onto the surface of the table (2=normal; 1=delay of 1-2 sec.; 0=more than 2 sec.). This test was performed 3 times for each hindlimb after each ambulation test. The sum of the three trials on both paws were recorded ([…]).
(§4) The dose and volume of drugs injected intrathecally were determined from the dose required to produce hindlimb sensory and motor loss in preliminary experiments. Bupivacaine HCl (0.75% in 8.25% dextrose for spinal injection) was purchased from Abbott Laboratories (Chicago, Ill.). The intrathecal injection volume was 40 μl. The compound was dissolved in 10% dextrose and water. The injection volume was 1 ul. All intrathecal drug injections were followed by a flush of 10 μl preservative-free saline.

[2] = system: rats; assay: Ambulation score after intrathecal injection; format: in vivo; conditions: rat; for Ambulation Score: median (range)
Description: as §1, §2, §3, §4

[3] = system: rats; assay: Segmental pinprick testing at hindpaw, hindleg, abdomen, chest and forepaw after intrathecal injection; format: in vivo; conditions: rat
Description: as §1
In a separate group of rats (n=5), the response to pinprick was tested once on the left hindpaw, the left hindleg, the lower abdomen, the chest and the left forepaw in rats injected with intrathecal 6-[2-(1(2)H-tetrazole-5-yl)ethyl]decahydroisoquinolone-3-carboxylic acid. Withdrawal, muscle contraction, or attempted escape reaction to pinprick was considered a positive test whereas their absence was considered a negative response. This test was not blinded.

[4] = system: rats; assay: Withdrawal response to pinprick after infiltration into the left hind paw; format: in vivo; conditions: rat
Description: Withdrawal response to pinprick were also tested before and after infiltration of (50 nmoles in 100 μl) of 6-[2-(1(2)H-tetrazole-5-yl)ethyl]decahydroisoquinolone-3-carboxylic acid into the left hind paw (n=5). Responses were recorded before injection of 6-[2-(1(2)H-tetrazole-5-yl)ethyl]decahydroisoquinolone-3-carboxylic acid and at 15, 30 and 60 minutes after injection. This test was not blinded.

[5] = local infiltration of the drug in the incision; previously reported by this inventor; cited from earlier work
[6] = Bupivacaine 0.75% 40 μl IT, n=8, 15 min
[7] = Bupivacaine 0.75% 40 μl IT, n=8, 30 min
[8] = Bupivacaine 0.75% 40 μl IT, n=8, 60 min
[9] = Bupivacaine 0.75% 40 μl IT, n=8, 90 min
[10] = Bupivacaine 0.75% 40 μl IT, n=8, 120 min
[11] = Bupivacaine 0.75% 40 μl IT, n=8, 180 min
[12] = Bupivacaine 0.75% 40 μl IT, n=8, 240 min
[13] = Bupivacaine 0.75% 40 μl IT, n=8, 24 hrs
[14] = Bupivacaine 0.75% 40 μl IT, n=8, Pre (before drug injection)
[15] = bupivacaine 0.75% 40 μl intrathecal
[16] = LY293558 5 nmoles IT, n=8, 24 hrs
[17] = LY293558 5 nmoles IT, n=8, Pre (before drug injection)

CCCCN1CCCCC1C(=O)Nc1c(C)cccc1C (stereo not shown) [Bupivacaine, Bupivacaine HCl]
Cumulative Placing Score [1, 6]: 0 (0-0)*
Cumulative Placing Score [1, 7]: 6 (0-12)*
Cumulative Placing Score [1, 8]: 12 (1-12)
Cumulative Placing Score [1, 9]: 12 (0-12)
Cumulative Placing Score [1, 10]: 12 (12-12)
Cumulative Placing Score [1, 11]: 12 (12-12)
Cumulative Placing Score [1, 12]: 12 (12-12)
Cumulative Placing Score [1, 13]: 12 (12-12)
Cumulative Placing Score [1, 14]: 12 (12-12)
placing reflex decreased for (P<0.05 vs Pre) [1, 15]: 30 min
Ambulation Score [2, 6]: 0 (0-0)*
Ambulation Score [2, 7]: 1 (0-2)*
Ambulation Score [2, 8]: 2 (1-2)
Ambulation Score [2, 9]: 2 (1-2)
Ambulation Score [2, 10]: 2 (2-2)
Ambulation Score [2, 11]: 2 (2-2)
Ambulation Score [2, 12]: 2 (2-2)
Ambulation Score [2, 13]: 2 (2-2)
Ambulation Score [2, 14]: 2 (2-2)
ambulation decreased for (P<0.05 vs Pre) [2, 15]: 30 min

O=C(O)C1CC2CC(CCc3nnn[nH]3)CCC2CN1 (stereo not shown) [LY293558, 6-[2-(1(2)H-tetrazole-5-yl)ethyl]decahydroisoquinolone-3-carboxylic acid]
segmental blockade of the response to pinprick ([3]; 5 nmoles intrathecal): present
evidence of sensory block of the forelimb ([3]; intrathecal, n=5, not blinded): in only one test at 15 minutes
sensation to pinprick blocked below the chest in all rats through ([3]; intrathecal, n=5, not blinded): 90 min
sensation to pinprick blocked in the hindlimb through ([3]; intrathecal, n=5, not blinded): 120 min
change in withdrawal response to pinprick from baseline ([4]; 50 nmoles in 100 μl infiltrated into the hind paw, n=5): no change; also recorded: did not affect
rats withdrawing to pinprick ([4]; 50 nmoles in 100 μl into the hind paw, n=5, at 15, 30 and 60 minutes): All five rats withdrew
effect on pain after incision [5]: no effect
placing reflex completely eliminated in all rats through ([1]; 5 nmoles intrathecal): 90 min
placing reflex impaired through (P<0.05 vs Pre) ([1]; 5 nmoles intrathecal): 3 h
Cumulative Placing Score [1, 16]: 12 (12-12)
Cumulative Placing Score [1, 17]: 12 (12-12)
time by which all rats had recovered ambulation ([2]; 5 nmoles intrathecal): ≤ 4 h
ambulation significantly impaired through (P<0.05 vs Pre) ([2]; 5 nmoles intrathecal, from 15 minutes): 90 min
Ambulation Score ([2]; LY293558 5 nmoles IT, n=8, 15 min): 0 (0-0)*
Ambulation Score ([2]; LY293558 5 nmoles IT, n=8, 240 min): 2 (2-2)
Ambulation Score [2, 16]: 2 (2-2)
Ambulation Score [2, 17]: 2 (2-2)
